Measured values: patent US8541670B2, “Compositions and methods for inhibiting tumor cell growth” (priority 2007, dated 2013)
Where no end group is shown, it is not given here.

Experiments:
[1] = system: panel of 32 kinases (AKT2, AKT3, PKA, PKC, PI3K, SGK, PAK2, PAK3, SAPK2/p38, Abl, CaMKII, CDK1/cyclinB, CDK5/p35, CK1, CK2, CSK, GSK3, JNK1, MAPK1, p70S6K …); test: In vitro kinase selectivity panel of 32 kinases; format: biochemical; settings: at IC50 for AKT1 (0.1 μM)
Method: As a specific substrate, the phosphorylation level of GSK-3[…] at Ser-9 was also evaluated. […] The decrease was specific to the AKT phosphorylation site on GSK-3[…] at Ser-9, since a change in the phosphorylation level of GSK-3[…] at Tyr-216 or GSK-3[…] at Tyr-279 was not observed. Moreover, the in vivo reduction of the phosphorylation of AKT substrates was more obvious at the injection site, since a significant change in the phosphorylation of AKT substrates in the frontal cortex or cerebellum between the two hemispheres was not observed. […] To test the specificity/selectivity of ZaTa as the inhibitor of AKT1 versus the other major kinases, a series of in vitro kinase assays was performed at IC50 for AKT1 and at ten times higher concentrations. A panel of the following 32 kinases was first tested in vitro using the active form of each kinase and a specific substrate: AKT2, AKT3, PKA, PKC[…], PKC, PI3K[…], PI3K[…], PI3K, SGK, PAK2, PAK3, SAPK2/p38, Abl, CaMKII, CDK1/cyclinB, CDK5/p35, CK1, CK2, CSK, GSK3[…], GSK3[…], JNK1[…]1, MAPK1, p70S6K, PDGFR[…], PDGFR[…], PDK1, PKG1[…], TrkB, JAK2, JAK3, and Syk. […] However, at ten times higher concentration, ZaTa inhibited AKT2 (63%), PI3K[…] (72%), p70S6K (64%), SGK (73%), PAK3 (83%), JAK3 (79%), TrkB (84%), and Abl (42%). […]

Abl = biological target: T1, Abl (Mus musculus, UniProt P00520); test: In vivo selectivity, western blot of phosphorylated substrate after injection into one hemisphere; settings: versus DMSO hemisphere
T1 construct: from tissue; host or cells: mouse brain hemisphere (striatum injection)
Method: (§1) To analyze in vivo selectivity, ZaTa was injected into one hemisphere and DMSO in the other hemisphere, as above, and a series of western blot analyses was preformed with phospho-specific antibodies which recognize a phosphorylated substrate or each one of the kinases that ZaTa inhibited at higher concentrations in vitro. […] Given the high functional and structural homology between p70S6K and AKT, the in vivo inhibitory effect of ZaTa on p70S6K was contemplated. Furthermore, the in vivo effect of ZaTa on the phosphorylation levels of substrates for PKA, PKC, CDKs using phospho-specific antibodies recognizing the phosphorylated consensus sites of these kinases was analyzed. In contrast to the consistent decrease in phosphorylation of AKT substrates, significant changes in the phosphorylation level of PKA, PKC and CDKs substrates was not observed after in vivo injection of ZaTa.
(§2) Phosphorylation sites for kinases analyzed herein included Ser-235/236 S6 (a substrate for p70S6K), Tyr-207 CRKL (a substrate for Abl; Zipfel, et al. (2004) supra), Ser-241 PDK1 (a substrate for PI3K), Tyr-1022/1023 JAK1 (a substrate for JAK3; Wang, et al. (2003) supra), Ser-421 Huntingtin (a substrate for SGK; Rangone, et al. (2004) supra), Tyr-783 PLC (a substrate for TrkB; Middlemas, et al. (1994) supra), and Ser-338 cRaf (a substrate for PAK3; King, et al. (1998) supra).

p70S6K = biological target: T2, p70S6K (Mus musculus, UniProt Q8BSK8); test: as above; settings: versus DMSO hemisphere
T2 construct: from tissue; host or cells: mouse brain hemisphere
Method: as §1, §2

T1 sequence (P00520 whole entry): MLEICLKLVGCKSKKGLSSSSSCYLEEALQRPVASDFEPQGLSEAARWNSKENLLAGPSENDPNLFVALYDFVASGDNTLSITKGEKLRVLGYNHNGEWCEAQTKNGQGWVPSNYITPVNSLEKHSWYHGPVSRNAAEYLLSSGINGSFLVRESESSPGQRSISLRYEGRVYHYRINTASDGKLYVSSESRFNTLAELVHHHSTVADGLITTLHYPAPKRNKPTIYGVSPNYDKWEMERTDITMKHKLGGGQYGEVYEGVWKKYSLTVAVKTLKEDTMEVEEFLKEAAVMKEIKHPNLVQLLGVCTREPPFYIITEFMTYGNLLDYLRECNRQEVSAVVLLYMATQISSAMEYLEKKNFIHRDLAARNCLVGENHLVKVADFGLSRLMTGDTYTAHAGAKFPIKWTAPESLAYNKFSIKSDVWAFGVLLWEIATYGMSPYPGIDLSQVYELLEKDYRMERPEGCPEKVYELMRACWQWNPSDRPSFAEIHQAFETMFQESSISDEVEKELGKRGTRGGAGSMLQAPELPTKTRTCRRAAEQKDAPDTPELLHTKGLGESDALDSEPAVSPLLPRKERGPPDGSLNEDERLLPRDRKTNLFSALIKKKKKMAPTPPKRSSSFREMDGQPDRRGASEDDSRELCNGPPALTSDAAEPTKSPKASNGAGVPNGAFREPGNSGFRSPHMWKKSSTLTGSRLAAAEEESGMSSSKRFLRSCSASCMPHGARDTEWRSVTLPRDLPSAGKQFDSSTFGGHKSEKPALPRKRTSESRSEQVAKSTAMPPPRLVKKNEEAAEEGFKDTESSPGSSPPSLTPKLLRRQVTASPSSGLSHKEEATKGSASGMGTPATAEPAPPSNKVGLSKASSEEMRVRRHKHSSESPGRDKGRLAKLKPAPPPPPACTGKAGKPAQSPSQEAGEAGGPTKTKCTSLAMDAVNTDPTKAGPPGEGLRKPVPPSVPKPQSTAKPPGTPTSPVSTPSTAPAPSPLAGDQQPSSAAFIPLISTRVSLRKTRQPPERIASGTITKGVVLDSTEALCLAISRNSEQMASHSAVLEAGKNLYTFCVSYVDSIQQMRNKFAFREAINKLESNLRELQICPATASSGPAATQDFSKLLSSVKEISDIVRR
T2 sequence (Q8BSK8 whole entry): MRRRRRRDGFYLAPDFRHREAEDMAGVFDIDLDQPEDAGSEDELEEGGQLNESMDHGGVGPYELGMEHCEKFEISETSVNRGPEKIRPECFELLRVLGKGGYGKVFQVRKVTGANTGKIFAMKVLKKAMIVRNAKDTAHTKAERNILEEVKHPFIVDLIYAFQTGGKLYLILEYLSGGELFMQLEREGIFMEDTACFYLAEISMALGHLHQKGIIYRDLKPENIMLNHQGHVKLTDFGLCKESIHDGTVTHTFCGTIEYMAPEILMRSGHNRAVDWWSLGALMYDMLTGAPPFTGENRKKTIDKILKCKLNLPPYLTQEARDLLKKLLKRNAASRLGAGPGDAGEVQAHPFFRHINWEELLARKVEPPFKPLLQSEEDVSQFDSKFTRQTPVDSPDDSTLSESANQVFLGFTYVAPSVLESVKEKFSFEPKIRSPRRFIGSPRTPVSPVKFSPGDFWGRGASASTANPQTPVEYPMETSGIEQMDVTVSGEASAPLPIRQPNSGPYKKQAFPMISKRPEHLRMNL

AKRVKGRTWTLCGTPEY [ZaTa]
inhibition of panel kinases [1]: no significant inhibition | in vivo inhibition of Abl (Abl): weaker in vivo inhibition | in vivo inhibition of p70S6K (p70S6K): potent in vivo inhibition
